This is an account of results in ChEMBL document CHEMBL5034032, “Discovery and Structure-Based Optimization of Fragments Binding the Mixed Lineage Kinase Domain-like Protein Executioner Domain” (J Med Chem, 2021).

pKd: −log10 of the molar value.

Data set [1] addresses T1, Mixed lineage kinase domain-like protein (Homo sapiens, UniProt Q8NB16).
T1 sequence (Q8NB16 whole entry): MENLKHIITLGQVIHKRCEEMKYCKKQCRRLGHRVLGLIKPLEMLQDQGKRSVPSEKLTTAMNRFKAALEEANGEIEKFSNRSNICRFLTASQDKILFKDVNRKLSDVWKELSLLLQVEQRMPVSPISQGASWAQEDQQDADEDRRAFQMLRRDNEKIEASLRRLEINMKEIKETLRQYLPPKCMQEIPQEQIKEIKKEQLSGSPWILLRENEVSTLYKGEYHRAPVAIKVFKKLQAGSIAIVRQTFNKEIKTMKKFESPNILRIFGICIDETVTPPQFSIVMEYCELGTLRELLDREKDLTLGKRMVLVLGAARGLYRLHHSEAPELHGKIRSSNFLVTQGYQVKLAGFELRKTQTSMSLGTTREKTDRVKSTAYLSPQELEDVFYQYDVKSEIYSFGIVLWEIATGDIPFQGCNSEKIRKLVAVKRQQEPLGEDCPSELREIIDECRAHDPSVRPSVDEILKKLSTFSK
In words: Binding affinity to MLKL N-terminal executioner domain (2 to 154 residues)(unknown origin) assessed as dissociation constant by TROSY-HSQC NMR titration analysis.

A short description of data set [2]: Permeability of compound by PAMPA assay. In kind it is ADME. The conditions noted are these: read-out: permeability. (In PAMPA a lipid-coated filter parts donor from acceptor wells.)

On to `CCCCCCCCCO[C@@H]1O[C@H](CO)[C@@H](O[C@H]2O[C@H](CO)[C@@H](O)[C@H](O)[C@H]2O)[C@H](O)[C@H]1O`, for which, in data set [1], the pKd is 2.26.
For the compound `CO[C@@H](c1ccc(C(C)C)cc1)c1nc2ccc(C(=O)O)cc2[nH]1`, the Papp in data set [2] is 0.031 ×10⁻⁶ cm/s.
As for `COCCOCn1c(S(C)(=O)=O)nc2c1c(=O)n(C)c(=O)n2C`, the pKd in data set [1] was 4.14.

For orientation: pKd means −log10 of the Kd, conventionally taken in molar units.
